Measurements published in patent US12194084B2 (priority 2019, dated 2025).

Test system: CD1b-restricted MA-specific TCR transgenic DN1 T cells
Format: cell-based, mouse

mycolic acid [MA]
IFN-γ production by DN1 T cells to MA-pulsed DC (ELISPOT): produced IFN-γ
activation of DN1 T cells (CD69, CD25, IFN-γ): able to activate DN1 T cells
